According to patent US11572590B2, “Methods for evaluating tumor cell spheroids using 3D microfluidic cell culture device” (Dana-Farber Cancer Institute, Inc., priority 2017, dated 2023):
Where two headings read alike, the source gives them in different places.

Tests used:
Test in all cases: SelectScreen Kinase Profiling, single point inhibition and IC50 for off-target kinases
Format in all cases: biochemical
[1] = biological target: off-target kinases (Homo sapiens, UniProt O00418)
[2] = biological target: off-target kinases (Homo sapiens, UniProt P49840); conditions: GSK3A (GSK3 alpha), ZLYTE, ATP Km app
[3] = biological target: T1, off-target kinases (Homo sapiens, UniProt Q32MK0); conditions: MLCK (MLCK2), LanthaScreen Binding
T1 sequence (Q32MK0 1-819): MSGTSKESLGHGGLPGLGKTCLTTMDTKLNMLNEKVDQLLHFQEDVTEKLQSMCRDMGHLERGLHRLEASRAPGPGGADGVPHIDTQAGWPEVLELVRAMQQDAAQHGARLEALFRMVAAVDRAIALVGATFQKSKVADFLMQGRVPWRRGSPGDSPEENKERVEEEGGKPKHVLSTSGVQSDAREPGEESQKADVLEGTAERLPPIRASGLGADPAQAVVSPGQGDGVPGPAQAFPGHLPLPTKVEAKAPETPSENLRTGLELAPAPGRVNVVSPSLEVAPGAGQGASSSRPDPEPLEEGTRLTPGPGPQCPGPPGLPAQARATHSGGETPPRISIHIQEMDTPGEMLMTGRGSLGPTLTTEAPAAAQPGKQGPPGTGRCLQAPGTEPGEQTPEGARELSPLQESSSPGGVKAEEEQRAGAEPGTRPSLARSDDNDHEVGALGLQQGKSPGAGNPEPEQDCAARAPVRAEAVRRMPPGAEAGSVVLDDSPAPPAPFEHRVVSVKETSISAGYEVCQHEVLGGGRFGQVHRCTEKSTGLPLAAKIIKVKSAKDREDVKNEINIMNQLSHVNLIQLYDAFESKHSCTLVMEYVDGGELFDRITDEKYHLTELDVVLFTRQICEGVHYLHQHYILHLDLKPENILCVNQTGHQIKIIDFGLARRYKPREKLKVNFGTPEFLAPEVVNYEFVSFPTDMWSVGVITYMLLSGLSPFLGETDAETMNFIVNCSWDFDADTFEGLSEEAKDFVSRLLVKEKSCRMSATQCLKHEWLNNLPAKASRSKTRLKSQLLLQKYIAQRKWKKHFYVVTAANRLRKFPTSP

[4] = biological target: off-target kinases (Homo sapiens, UniProt P06493)
Chain of off-target kinases (Homo sapiens, UniProt P06493) (P06493 whole entry): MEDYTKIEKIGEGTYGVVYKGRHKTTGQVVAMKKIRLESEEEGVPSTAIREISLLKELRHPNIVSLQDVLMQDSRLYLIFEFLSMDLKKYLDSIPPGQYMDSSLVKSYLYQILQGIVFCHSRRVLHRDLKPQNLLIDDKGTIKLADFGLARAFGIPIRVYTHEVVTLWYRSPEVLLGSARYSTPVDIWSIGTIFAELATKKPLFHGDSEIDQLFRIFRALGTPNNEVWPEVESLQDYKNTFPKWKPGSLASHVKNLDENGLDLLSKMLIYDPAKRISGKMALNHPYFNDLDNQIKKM

Chain of off-target kinases (Homo sapiens, UniProt P49840) (P49840 whole entry): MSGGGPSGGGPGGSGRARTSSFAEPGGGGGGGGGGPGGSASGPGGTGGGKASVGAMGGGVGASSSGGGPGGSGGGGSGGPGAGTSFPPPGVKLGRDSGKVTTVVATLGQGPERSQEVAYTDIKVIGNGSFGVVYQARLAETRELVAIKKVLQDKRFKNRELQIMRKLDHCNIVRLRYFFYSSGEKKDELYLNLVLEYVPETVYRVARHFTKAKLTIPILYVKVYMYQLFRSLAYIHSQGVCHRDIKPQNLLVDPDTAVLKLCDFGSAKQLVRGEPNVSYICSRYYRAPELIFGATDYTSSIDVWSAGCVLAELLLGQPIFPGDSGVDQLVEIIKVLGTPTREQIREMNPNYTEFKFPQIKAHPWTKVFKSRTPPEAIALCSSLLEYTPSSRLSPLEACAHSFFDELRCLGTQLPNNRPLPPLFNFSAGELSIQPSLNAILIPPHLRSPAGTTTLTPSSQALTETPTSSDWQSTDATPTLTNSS
Chain of off-target kinases (Homo sapiens, UniProt O00418) (O00418 whole entry): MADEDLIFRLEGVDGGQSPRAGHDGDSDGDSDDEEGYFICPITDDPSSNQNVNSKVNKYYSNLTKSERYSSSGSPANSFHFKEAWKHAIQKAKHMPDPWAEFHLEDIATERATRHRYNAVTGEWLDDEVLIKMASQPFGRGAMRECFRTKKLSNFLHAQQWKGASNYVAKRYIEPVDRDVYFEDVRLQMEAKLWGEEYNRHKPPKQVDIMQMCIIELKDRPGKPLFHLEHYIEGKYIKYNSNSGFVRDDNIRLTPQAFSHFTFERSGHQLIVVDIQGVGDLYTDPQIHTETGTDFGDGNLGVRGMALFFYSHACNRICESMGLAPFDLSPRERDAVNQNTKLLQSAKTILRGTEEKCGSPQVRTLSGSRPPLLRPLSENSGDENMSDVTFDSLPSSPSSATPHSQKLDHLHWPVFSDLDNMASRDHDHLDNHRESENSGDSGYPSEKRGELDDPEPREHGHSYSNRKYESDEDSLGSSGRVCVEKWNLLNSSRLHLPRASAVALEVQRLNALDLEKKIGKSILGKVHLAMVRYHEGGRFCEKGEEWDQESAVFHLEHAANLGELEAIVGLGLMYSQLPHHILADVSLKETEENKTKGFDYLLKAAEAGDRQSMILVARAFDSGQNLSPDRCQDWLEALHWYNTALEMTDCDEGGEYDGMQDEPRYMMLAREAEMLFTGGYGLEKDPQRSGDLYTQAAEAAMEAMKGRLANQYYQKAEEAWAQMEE

## N#Cc1cc(-c2ncnc(Nc3ccc(N4CCN(C5COC5)CC4)cc3)n2)ccc1OC1CCOCC1 [Compound 1, 5-(4-((4-(4-(oxetan-3-yl)piperazin-1-yl)phenyl)amino)-1,3,5-triazin-2-yl)-2-((tetrahydro-2H-pyran-4-yl)oxy)benzonitrile]
[1]; read-out: % Inhibition 1
  inhibition: -1%
[1]; read-out: % Inhibition 2
  inhibition: 0%
[1]; read-out: % Inhibition Avg
  inhibition: -1%
[2]; read-out: % Inhibition 1
  inhibition: 20%
[2]; read-out: % Inhibition 2
  inhibition: 22%
[2]; read-out: % Inhibition Avg
  inhibition: 21%
[3]; read-out: % Inhibition 1
  inhibition: 92%
[3]; read-out: % Inhibition 2
  inhibition: 93%
[3]; read-out: % Inhibition Avg
  inhibition: 93%
[4]; CDK1/cyclin A2, LanthaScreen Binding, read-out: % Inhibition 1
  inhibition: 2%
[4]; CDK1/cyclin A2, LanthaScreen Binding, read-out: % Inhibition 2
  inhibition: 12%
[4]; CDK1/cyclin A2, LanthaScreen Binding, read-out: % Inhibition Avg
  inhibition: 7%
[4]; CDK1/cyclin B, ZLYTE, ATP Km app, read-out: % Inhibition 1
  inhibition: 16%
[4]; CDK1/cyclin B, ZLYTE, ATP Km app, read-out: % Inhibition 2
  inhibition: 15%
[4]; CDK1/cyclin B, ZLYTE, ATP Km app, read-out: % Inhibition Avg
  inhibition: 16%
